Results published in ChEMBL document CHEMBL4270669 (J Med Chem, 2018).
Values after ≈ are worked out from the molar mass of the structure shown. Active and inactive are the calls of the source. The rule behind the calls is not given here.

Key:
[1] = molecular target: T1, Serine/threonine-protein kinase mTOR (Homo sapiens, UniProt P42345); assay: Binding affinity to mTOR FKBP12 site (unknown origin)
[2] = Lipophilicity, log D of the compound at pH 7.4; assay type: physicochemical; details: buffer
[3] = Ratio of drug level in C57BL/6JRj mouse brain to plasma at 50 mg/kg, po administered as single dose; assay type: ADME, organism-based; details: read-out: BPR
[4] = AUC in Sprague-Dawley rat plasma at 10 mg/kg, po administered as single dose after 8 hrs; assay type: ADME, organism-based; set-up: dose 10 mg/kg, time < 8 hr, route oral
[5] = system: OVCAR-3; assay: Antitumor activity against human OVCAR3 cells xenografted in BALB/C nude mouse assessed as tumor growth inhibition at 50 mg/kg, po administered daily for 28 days relative to control; assay type: functional; details: OVCAR-3, po, 672 h, read-out: TGI
[6] = molecular target: Phosphatidylinositol 4-kinase beta (Homo sapiens, UniProt Q9UBF8)
Description: Inhibition of human PI4Kbeta (1 to 828 residues) expressed in mammalian expression system by KINOMEscan assay

[7] = molecular target: COX1 (Prostaglandin G/H synthase 1) (Homo sapiens, UniProt P23219); assay: Inhibition of recombinant human COX1 at 10 uM using arachidonic acid/ADHP as substrate by fluorometric method relative to control; details: recombinant human COX1, probe arachidonic acid/ADHP
Sequence of COX1 (Prostaglandin G/H synthase 1) (P23219 whole entry): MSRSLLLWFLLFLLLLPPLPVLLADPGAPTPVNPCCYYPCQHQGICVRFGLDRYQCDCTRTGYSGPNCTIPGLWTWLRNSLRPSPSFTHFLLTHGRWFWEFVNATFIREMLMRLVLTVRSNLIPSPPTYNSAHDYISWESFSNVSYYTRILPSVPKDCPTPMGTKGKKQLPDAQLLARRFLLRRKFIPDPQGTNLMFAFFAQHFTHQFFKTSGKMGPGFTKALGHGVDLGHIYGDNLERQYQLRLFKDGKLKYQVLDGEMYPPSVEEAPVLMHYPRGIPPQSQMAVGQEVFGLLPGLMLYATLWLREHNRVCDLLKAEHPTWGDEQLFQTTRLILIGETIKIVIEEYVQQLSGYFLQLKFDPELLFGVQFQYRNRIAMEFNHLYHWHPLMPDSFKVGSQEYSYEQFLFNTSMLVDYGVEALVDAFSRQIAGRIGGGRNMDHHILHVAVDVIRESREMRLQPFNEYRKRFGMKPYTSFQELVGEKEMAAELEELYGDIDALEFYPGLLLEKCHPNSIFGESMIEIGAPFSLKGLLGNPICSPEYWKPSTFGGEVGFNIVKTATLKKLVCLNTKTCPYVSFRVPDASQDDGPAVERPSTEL

[8] = Thermodynamic solubility of the compound at pH 1.2; assay type: physicochemical; details: buffer, read-out: Therm_solubility
[9] = Metabolic stability in rat liver microsomes assessed as compound remaining after 30 mins; assay type: ADME, microsome; details: read-out: Stability
[10] = Cmax in Sprague-Dawley rat plasma at 10 mg/kg, po administered as single dose after 30 mins; assay type: ADME, organism-based; set-up: dose 10 mg/kg, route oral
[11] = Toxicity in rat after 14 days; assay type: organism-based; details: in vivo
[12] = system: Rattus norvegicus; assay: Increase in glucose levels in Sprague-Dawley rat plasma at 10 mg/kg, po administered as single dose; assay type: functional, organism-based
[13] = molecular target: T2, Phosphatidylinositol 4,5-bisphosphate 3-kinase catalytic subunit alpha isoform (Homo sapiens, UniProt P42336)
T2 sequence (P42336 whole entry, canonical isoform): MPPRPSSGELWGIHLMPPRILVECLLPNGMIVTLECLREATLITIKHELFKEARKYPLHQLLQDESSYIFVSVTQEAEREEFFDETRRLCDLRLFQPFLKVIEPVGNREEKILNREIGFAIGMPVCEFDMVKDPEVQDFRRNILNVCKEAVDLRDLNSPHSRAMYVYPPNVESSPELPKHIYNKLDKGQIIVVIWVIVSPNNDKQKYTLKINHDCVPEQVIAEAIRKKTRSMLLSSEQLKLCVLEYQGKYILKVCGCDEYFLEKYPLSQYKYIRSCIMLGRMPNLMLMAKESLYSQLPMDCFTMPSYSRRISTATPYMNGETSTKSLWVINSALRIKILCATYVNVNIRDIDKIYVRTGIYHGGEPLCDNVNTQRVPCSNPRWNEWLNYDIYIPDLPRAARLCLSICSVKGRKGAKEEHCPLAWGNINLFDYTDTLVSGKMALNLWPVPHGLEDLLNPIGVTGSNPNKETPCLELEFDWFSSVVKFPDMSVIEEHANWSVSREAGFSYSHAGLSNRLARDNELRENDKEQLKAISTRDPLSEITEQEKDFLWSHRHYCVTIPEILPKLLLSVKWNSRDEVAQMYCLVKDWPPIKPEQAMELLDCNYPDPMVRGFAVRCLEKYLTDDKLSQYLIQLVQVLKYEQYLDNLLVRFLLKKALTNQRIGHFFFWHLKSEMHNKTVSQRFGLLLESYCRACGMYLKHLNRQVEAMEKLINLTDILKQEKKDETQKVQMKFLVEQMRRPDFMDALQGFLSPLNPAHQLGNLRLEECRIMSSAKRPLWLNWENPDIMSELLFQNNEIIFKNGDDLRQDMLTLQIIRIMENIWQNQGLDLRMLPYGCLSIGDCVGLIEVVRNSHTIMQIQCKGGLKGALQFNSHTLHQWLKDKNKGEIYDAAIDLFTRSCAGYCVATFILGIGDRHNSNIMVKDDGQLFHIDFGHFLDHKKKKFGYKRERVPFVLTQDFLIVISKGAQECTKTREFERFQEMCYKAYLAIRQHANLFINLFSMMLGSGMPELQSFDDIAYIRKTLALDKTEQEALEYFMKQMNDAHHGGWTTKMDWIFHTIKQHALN
Description: Inhibition of human PI3Kalpha (108 to 1068 residues) expressed in mammalian expression system by KINOMEscan assay

[14] = Unbound fraction in rat brain; assay type: ADME, tissue-based
[15] = Half life in mouse hepatocytes; assay type: ADME, cell-based, Hepatocyte
[16] = Metabolic stability in mouse liver microsomes assessed as compound remaining after 30 mins; assay type: ADME, microsome; details: read-out: Stability
[17] = Cmax in Sprague-Dawley rat brain at 10 mg/kg, po administered as single dose after 30 mins; assay type: ADME, organism-based; set-up: dose 10 mg/kg, route oral
[18] = molecular target: PDE4D2 (3',5'-cyclic-AMP phosphodiesterase 4D) (Homo sapiens, UniProt Q08499); assay: Inhibition of recombinant human PDE4D2 at 10 uM using [3H]cAMP/cAMP by scintillation counting method relative to control; details: recombinant human PDE4D2, probe [3H]cAMP/cAMP
Sequence of PDE4D2 (3',5'-cyclic-AMP phosphodiesterase 4D) (Q08499 whole entry, canonical isoform): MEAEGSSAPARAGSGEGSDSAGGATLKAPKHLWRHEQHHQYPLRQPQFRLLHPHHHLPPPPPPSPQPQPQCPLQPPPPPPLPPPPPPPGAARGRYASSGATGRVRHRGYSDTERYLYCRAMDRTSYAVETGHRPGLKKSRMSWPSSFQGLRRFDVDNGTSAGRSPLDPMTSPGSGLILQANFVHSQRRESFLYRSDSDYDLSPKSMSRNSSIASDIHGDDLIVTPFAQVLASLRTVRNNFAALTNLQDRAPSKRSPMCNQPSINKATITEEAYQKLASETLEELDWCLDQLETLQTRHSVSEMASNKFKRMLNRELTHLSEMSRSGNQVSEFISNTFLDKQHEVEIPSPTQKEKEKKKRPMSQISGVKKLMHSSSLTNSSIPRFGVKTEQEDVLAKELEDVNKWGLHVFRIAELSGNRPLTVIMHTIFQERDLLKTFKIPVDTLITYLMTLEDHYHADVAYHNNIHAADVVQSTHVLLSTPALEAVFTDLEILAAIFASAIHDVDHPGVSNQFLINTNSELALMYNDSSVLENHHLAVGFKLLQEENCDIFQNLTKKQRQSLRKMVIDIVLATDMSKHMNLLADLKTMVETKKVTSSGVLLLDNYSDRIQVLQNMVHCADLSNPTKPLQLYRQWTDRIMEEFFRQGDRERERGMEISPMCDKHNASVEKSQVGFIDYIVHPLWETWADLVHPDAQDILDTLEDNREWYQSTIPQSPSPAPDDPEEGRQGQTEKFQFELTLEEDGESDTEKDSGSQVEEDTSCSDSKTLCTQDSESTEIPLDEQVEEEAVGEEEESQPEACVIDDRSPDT

[19] = molecular target: Phosphatidylinositol 4,5-bisphosphate 3-kinase catalytic subunit gamma isoform (Homo sapiens, UniProt P48736)
Sequence of Phosphatidylinositol 4,5-bisphosphate 3-kinase catalytic subunit gamma isoform (P48736 whole entry, canonical isoform): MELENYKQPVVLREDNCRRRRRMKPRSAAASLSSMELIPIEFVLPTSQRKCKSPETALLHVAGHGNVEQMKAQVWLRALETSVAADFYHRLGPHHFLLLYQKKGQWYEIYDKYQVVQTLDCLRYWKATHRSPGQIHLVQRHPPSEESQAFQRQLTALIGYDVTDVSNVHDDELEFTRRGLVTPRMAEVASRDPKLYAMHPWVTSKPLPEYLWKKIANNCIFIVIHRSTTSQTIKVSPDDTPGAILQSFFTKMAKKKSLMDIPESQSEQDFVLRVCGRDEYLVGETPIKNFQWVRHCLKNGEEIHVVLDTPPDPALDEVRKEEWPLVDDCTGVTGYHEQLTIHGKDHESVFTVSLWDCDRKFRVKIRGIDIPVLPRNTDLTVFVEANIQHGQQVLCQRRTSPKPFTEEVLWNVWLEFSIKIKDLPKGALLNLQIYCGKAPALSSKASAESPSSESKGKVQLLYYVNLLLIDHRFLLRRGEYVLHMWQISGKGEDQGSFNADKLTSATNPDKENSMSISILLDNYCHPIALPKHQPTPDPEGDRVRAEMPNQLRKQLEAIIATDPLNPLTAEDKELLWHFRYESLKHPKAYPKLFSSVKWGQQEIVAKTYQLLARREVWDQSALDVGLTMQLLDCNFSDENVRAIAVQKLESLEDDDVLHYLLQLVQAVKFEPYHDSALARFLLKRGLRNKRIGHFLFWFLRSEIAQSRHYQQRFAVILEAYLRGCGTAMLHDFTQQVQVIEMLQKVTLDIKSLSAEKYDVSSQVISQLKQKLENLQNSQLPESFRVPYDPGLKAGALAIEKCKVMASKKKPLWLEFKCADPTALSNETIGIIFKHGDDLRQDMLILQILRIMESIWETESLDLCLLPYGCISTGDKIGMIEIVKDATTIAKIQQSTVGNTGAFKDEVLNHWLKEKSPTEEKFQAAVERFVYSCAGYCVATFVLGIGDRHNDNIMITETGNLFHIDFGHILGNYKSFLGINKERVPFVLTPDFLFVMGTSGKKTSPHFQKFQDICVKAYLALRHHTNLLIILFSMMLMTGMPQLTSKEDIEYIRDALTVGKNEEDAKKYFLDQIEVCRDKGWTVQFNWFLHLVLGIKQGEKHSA
Description: Inhibition of human PI3Kgamma (144 to 1102 residues) expressed in mammalian expression system by KINOMEscan assay

[20] = system: A 172; assay: Growth inhibition of human A172 cells after 72 hrs by ATPlite based assay; assay type: functional; details: A 172, 72 h, pooled result: one value given for 8 cell lines, strains, targets or settings
[21] = molecular target: Phosphatidylinositol 3-kinase catalytic subunit type 3 (Homo sapiens, UniProt Q8NEB9); assay: Inhibition of human VPS34 (282 to 879 residues) expressed in mammalian expression system by KINOMEscan assay
[22] = Cmax in C57BL/6JRj mouse brain at 50 mg/kg, po administered as single dose; assay type: ADME, organism-based; set-up: dose 50 mg/kg, route oral
[23] = Ratio of drug level in Sprague-Dawley rat brain to plasma at 10 mg/kg, po administered as single dose; assay type: ADME, organism-based; details: read-out: BPR
[24] = molecular target: Voltage-gated inwardly rectifying potassium channel KCNH2 (Homo sapiens, UniProt Q12809); assay: Binding affinity to human ERG expressed in CHO cell membranes at 10 uM by radioligand displacement assay
[25] = system: Mus musculus; assay: Increase in glucose levels in C57BL/6JRj mouse plasma at 50 mg/kg, po administered as single dose; assay type: functional, organism-based
[26] = system: Mus musculus; assay: Increase in insulin levels in C57BL/6JRj mouse plasma at 50 mg/kg, po administered as single dose; assay type: functional, organism-based
[27] = Inhibition of TORC2 in human A2058 cells assessed as decrease in PKB/Akt phosphorylation at Ser473 after 1 hr by Western blot analysis; assay type: cell-based; details: A2058, 1 h
[28] = molecular target: T1, Serine/threonine-protein kinase mTOR
Description: Inhibition of human mTOR (1382 to 2549 residues) expressed in mammalian expression system by KINOMEscan assay

[29] = Thermodynamic solubility of the compound at pH 4.5; assay type: physicochemical; details: buffer, read-out: Therm_solubility
[30] = Half life in rat hepatocytes; assay type: ADME, cell-based, Hepatocyte
[31] = Drug uptake in Sprague-Dawley rat brain at 10 mg/kg, po administered as single dose measured at >8 hrs; assay type: ADME, organism-based; details: read-out: Drug uptake
[32] = molecular target: T2, Phosphatidylinositol 4,5-bisphosphate 3-kinase catalytic subunit alpha isoform; remark: listed apart in the source
[33] = system: Mus musculus; assay: Antiepileptic activity in Tsc1flox/flox/GFAP-Cre conditional knocked out mouse model assessed as reduction in seizures at 100 mg/kg, po qd treated from days 21 to 53 postnatal by electroencephalography; assay type: functional, organism-based
[34] = molecular target: T3, Phosphatidylinositol 4,5-bisphosphate 3-kinase catalytic subunit delta isoform (Homo sapiens, UniProt O00329)
T3 sequence (O00329 whole entry): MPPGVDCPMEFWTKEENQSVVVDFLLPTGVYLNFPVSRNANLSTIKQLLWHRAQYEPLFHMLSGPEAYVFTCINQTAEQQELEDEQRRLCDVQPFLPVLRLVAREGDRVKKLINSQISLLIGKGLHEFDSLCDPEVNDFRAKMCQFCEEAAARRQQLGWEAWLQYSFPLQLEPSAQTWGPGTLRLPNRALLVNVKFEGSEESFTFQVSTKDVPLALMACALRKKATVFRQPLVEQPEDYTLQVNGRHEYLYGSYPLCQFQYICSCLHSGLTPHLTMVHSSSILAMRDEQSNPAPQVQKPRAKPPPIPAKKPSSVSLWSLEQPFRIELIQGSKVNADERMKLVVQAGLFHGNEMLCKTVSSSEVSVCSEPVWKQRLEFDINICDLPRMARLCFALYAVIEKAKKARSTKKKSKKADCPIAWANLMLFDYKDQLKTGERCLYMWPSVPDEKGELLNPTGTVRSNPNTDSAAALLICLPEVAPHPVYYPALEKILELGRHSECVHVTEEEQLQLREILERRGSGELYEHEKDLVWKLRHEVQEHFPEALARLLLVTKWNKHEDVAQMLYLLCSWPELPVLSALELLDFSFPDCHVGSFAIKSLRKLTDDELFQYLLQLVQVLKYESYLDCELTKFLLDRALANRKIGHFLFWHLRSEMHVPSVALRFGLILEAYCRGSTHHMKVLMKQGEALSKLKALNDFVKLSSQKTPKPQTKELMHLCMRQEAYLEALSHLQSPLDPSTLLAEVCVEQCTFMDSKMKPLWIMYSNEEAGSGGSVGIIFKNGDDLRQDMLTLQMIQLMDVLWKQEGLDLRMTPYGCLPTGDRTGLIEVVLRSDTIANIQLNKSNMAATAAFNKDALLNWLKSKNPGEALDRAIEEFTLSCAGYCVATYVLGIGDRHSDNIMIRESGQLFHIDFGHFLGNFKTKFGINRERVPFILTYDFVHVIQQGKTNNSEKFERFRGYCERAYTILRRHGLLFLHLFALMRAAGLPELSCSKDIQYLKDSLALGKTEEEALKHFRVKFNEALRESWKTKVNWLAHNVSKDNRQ
Description: Inhibition of human PI3Kdelta (108 to 1044 residues) expressed in mammalian expression system by KINOMEscan assay

[35] = Clearance in rat hepatocytes assessed per million cells; assay type: ADME, cell-based, Hepatocyte; details: read-out: CLH
[36] = Thermodynamic solubility of the compound in FeSSIF; assay type: physicochemical; details: read-out: Therm_solubility
[37] = Toxicity in mouse; assay type: organism-based; details: in vivo
[38] = Thermodynamic solubility of the compound at pH 6.8; assay type: physicochemical; details: buffer, read-out: Therm_solubility
[39] = AUC in Sprague-Dawley rat brain at 10 mg/kg, po administered as single dose after 8 hrs; assay type: ADME, organism-based; set-up: dose 10 mg/kg, time < 8 hr, route oral; details: in vivo
[40] = Inhibition of TORC1 in human A2058 cells assessed as decrease in S6 phosphorylation at Ser235/236 after 1 hr by Western blot analysis; assay type: cell-based; details: A2058, 1 h
[41] = system: Rattus norvegicus; assay: Increase in insulin levels in Sprague-Dawley rat plasma at 10 mg/kg, po administered as single dose; assay type: functional, organism-based
[42] = Clearance in mouse hepatocytes assessed per million cells; assay type: ADME, cell-based, Hepatocyte; details: read-out: CLH
[43] = molecular target: Phosphatidylinositol 4,5-bisphosphate 3-kinase catalytic subunit beta isoform (Homo sapiens, UniProt P42338)
Sequence of Phosphatidylinositol 4,5-bisphosphate 3-kinase catalytic subunit beta isoform (P42338 whole entry, canonical isoform): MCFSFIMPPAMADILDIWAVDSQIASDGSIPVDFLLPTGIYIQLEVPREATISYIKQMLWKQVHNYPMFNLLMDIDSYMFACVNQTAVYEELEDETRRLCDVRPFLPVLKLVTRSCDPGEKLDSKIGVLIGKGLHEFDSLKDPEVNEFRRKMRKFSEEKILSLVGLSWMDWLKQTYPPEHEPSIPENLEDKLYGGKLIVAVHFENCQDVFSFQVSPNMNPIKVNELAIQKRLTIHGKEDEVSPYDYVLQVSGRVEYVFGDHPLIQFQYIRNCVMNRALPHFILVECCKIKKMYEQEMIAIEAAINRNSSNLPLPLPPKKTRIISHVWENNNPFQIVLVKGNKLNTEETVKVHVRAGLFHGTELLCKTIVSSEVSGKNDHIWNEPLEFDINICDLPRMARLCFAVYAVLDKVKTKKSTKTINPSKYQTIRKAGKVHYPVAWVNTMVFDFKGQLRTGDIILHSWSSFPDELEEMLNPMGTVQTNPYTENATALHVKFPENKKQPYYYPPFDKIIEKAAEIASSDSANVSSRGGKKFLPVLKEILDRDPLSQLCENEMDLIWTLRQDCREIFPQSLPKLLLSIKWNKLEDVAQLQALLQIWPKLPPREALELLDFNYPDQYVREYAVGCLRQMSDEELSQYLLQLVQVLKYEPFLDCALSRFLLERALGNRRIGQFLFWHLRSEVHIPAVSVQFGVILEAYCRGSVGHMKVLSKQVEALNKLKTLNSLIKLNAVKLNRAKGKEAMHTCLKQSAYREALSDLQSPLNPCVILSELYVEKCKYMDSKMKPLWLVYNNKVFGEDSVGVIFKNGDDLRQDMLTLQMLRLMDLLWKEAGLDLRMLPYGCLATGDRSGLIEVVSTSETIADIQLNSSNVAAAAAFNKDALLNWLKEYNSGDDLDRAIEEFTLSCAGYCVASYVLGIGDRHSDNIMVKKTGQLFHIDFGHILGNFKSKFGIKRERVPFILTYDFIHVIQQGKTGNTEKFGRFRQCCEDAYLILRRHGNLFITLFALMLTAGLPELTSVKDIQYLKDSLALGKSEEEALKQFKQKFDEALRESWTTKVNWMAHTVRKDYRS
Description: Inhibition of human PI3Kbeta (118 to 1070 residues) expressed in mammalian expression system by KINOMEscan assay

[44] = Thermodynamic solubility of the compound in FaSSIF; assay type: physicochemical; details: read-out: Therm_solubility
[45] = molecular target: T1, Serine/threonine-protein kinase mTOR; remark: listed apart in the source
[46] = Apparent permeability of the compound by PAMPA; assay type: ADME
[47] = system: Mus musculus; assay: Toxicity in BALB/C nude mouse xenografted with human OVCAR3 cells assessed as body weight loss at 50 mg/kg, po administered daily for 28 days relative to control; assay type: organism-based; details: in vivo, 672 h

Question: Which Kd [1] does the source give for CO[C@H]1C[C@@H]2CC[C@@H](C)[C@@](O)(O2)C(=O)C(=O)N2CCCC[C@H]2C(=O)O[C@H]([C@H](C)C[C@@H]2CC[C@@H](OCCO)[C@H](OC)C2)CC(=O)[C@H](C)/C=C(\C)[C@@H](O)[C@@H](OC)C(=O)[C@H](C)C[C@H](C)/C=C/C=C/C=C/1C [EVEROLIMUS] here?
Answer: 2 nM

Question: Which logD [2] does the source give for Nc1cc(C(F)F)c(-c2nc(N3C4CCC3COC4)nc(N3C4CCC3COC4)n2)cn1 here?
Answer: 3.47

Question: And the Kp [3]?
Answer: 1.6

Question: And the AUC at 8 h [4]?
Answer: 409 µg·h/mL

Question: What about the inhibition in vivo at 50 mg/kg [5] of the same molecule?
Answer: > 50%

Question: And the Kd [6]?
Answer: > 30000 nM

Question: And the inhibition at 10 µM [7]?
Answer: < 50%

Question: And the solubility thermodynamic [8]?
Answer: 20000 µM (≈ 8890 µg/mL)

Question: What about the remaining at 0.5 h [9] of the same molecule?
Answer: 108%

Question: And the Cmax [10]?
Answer: 1360 ng/mL

Question: And the MTD at 336 h [11]?
Answer: 30 mg/kg

Question: And the Activity [12]?
Answer: inactive

Question: And the Kd [13]?
Answer: 1000 nM

Question: And the fraction unbound [14]?
Answer: 0.03

Question: What about the half-life [15] of the same molecule?
Answer: 5.41 h

Question: What about the remaining at 0.5 h [16] of the same molecule?
Answer: 70.2%

Question: What about the Cmax [17] of the same molecule?
Answer: 1310 ng/g

Question: And the inhibition at 10 µM [18]?
Answer: < 50%

Question: And the Kd [19]?
Answer: 18000 nM

Question: What about the IC50 [20] of the same molecule?
Answer: 920 nM

Question: And the Kd [21]?
Answer: 2750 nM

Question: And the Cmax [22]?
Answer: 7710 ng/g

Question: And the Kp [23]?
Answer: 1

Question: What about the “inhibition (INH)” value [24] of the same molecule?
Answer: Not Active

Question: And the Activity [25]?
Answer: Active

Question: And the Activity [26]?
Answer: inactive

Question: And the IC50 [27]?
Answer: 190 nM

Question: And the Kd [28]?
Answer: 0.27 nM

Question: What about the solubility thermodynamic [29] of the same molecule?
Answer: 78.2 µM (≈ 34.8 µg/mL)

Question: And the half-life [30]?
Answer: 7.81 h

Question: What about the concentration at 8 h [31] of the same molecule?
Answer: 900 ng/g

Question: And the Ki [32]?
Answer: 4200 nM

Question: What about the Activity [33] of the same molecule?
Answer: Active

Question: What about the Kd [34] of the same molecule?
Answer: 23000 nM

Question: And the hepatocyte CLint [35]?
Answer: 1.85 µL/min/1e6 cells

Question: What about the solubility thermodynamic [36] of the same molecule?
Answer: 335 µM (≈ 149 µg/mL)

Question: And the MTD [37]?
Answer: 150 mg/kg

Question: What about the solubility thermodynamic [38] of the same molecule?
Answer: 33.7 µM (≈ 15 µg/mL)

Question: What about the AUC [39] of the same molecule?
Answer: 404 µg·h/g

Question: What about the IC50 [40] of the same molecule?
Answer: 85.2 nM

Question: And the Activity [41]?
Answer: inactive

Question: And the hepatocyte CLint [42]?
Answer: 2.67 µL/min/1e6 cells

Question: And the Kd [43]?
Answer: 22000 nM

Question: And the solubility thermodynamic [44]?
Answer: 66 µM (≈ 29.4 µg/mL)

Question: What about the Ki [45] of the same molecule?
Answer: 10.8 nM

Question: What about the Papp [46] of the same molecule?
Answer: 5.22 ×10⁻⁶ cm/s

Question: What about the Activity [47] of the same molecule?
Answer: Non-Toxic
